The values that follow come from patent US20180250320A1, “COMPOSITIONS AND METHODS FOR TREATING SOLID TUMORS” (THE JOHNS HOPKINS UNIVERSITY, priority 2015, published 2018).

Data set [1] has as its system VEGF-defensin ID8 ovarian cells. Kind of data set: Ascites fluid volume in the ID8 model of ovarian cancer. Type of data set: in vivo. The following applies: mice drained at week 6 after injection; same regimen; vs untreated (Mock) or single agent. As for the experimental part: Mice were injected with 2.5×10^6VEGF-defensin ID8 ovarian cells i.p. Three days later, mice began treatment with 0.5 mg/kg 5-azacytidine (AZA) for 5 days per week. The next week the mice were treated with either 2 mg/kg MS275 or ITF 5 days a week, and the treatments alternated by week until the end of the experiment. Mice developed ascites fluid by week 4.5, and were drained and the ascites volume was measured. Ascites volume from mice drained at week 6 after injection.

For data set [2] the following is noted: cited from earlier work.
Data set [3] has as its system Human lung cancer cell lines H23 and A549. Kind of data set: Expression of anti-viral genes and cancer testis antigens after AZA priming and HDACi treatment. The class given is cell-based. The following applies: for expression of anti-viral genes: FIG. 4A; for expression of cancer testis antigens: FIG. 4B. The source says: FIGS. 4A and 4B. […] Human lung cancer cell lines H23 and A549 were primed by treatment with AZA (red line) for 5 days followed by 3-5 days of treatment with the HDACi. For many genes, addition of an HDACi to AZA increases gene expression above levels attained by AZA alone.

Setting [4] is: HDACi in combination with AZA: AZA priming 5 days, then 3-5 days HDACi.

Where two headings read alike, the source gives them in different places.

As for `Nc1ncn([C@@H]2O[C@H](CO)[C@@H](O)[C@H]2O)c(=O)n1` [AZA, 4-amino-1-β-D-ribofuranozyl-s-triazin-2(1H)-one], the ascites fluid volume result in data set [1] is given as “significantly reduced ascites volume compared to Mock”. Also, the solubility entry in data set [2] (5% Tween 80 in water) is “sparingly soluble”; in data set [2] (5% dextrose in water), “sparingly soluble”; in data set [2] (N-methyl-2-pyrrolidone) it was “sparingly soluble”; in data set [2] (acetone), “insoluble”; in data set [2] (dimethylsulfoxide (DMSO)), “soluble”; in data set [2] (ethanol/water (50/50)) it was “slightly soluble”. The solubility result in data set [2] (ethanol) is on record as “insoluble”; in data set [2] (methyl ketone), “insoluble”; in data set [2] (normal saline), “sparingly soluble”; in data set [2] (polyethylene glycol), “slightly soluble”; in data set [2] (propylene glycol) it was “slightly soluble”; in data set [2] (water-saturated octanol), “sparingly soluble”. In data set [2] (water), the solubility entry is recorded as “sparingly soluble”.

Take `Nc1ccccc1NC(=O)c1ccc(CNC(=O)OCc2cccnc2)cc1` [Entinostat]: in data set [3] (setting [4]), the “expression of anti-viral genes” value is on record as “increase expression” and the “expression of cancer testis antigens” value is on record as “increase expression”. In addition, in data set [3] (HDACi used as single agent), the “expression of anti-viral genes” value is given as “NOT” and the “expression of cancer testis antigens” value is reported as “NOT”.

Turning to `CCN(CC)Cc1ccc2cc(COC(=O)Nc3ccc(C(=O)NO)cc3)ccc2c1.Cl` [Givinostat, diethyl-[6-(4-hydroxycarbamoyl-phenylcarbamoyloxymethyl)-naphthalen-2-ylmethyl]-ammonium chloride], in data set [3] (setting [4]), the “expression of anti-viral genes” value is given as “increase expression” and the “expression of cancer testis antigens” value was “increase expression”. Further, in data set [3] (HDACi used as single agent), the “expression of anti-viral genes” value was “NOT” and the “expression of cancer testis antigens” value is “NOT”.
